These are literature values, as cited in PMC6328172, “5-HT2 receptor binding, functional activity and selectivity in N-benzyltryptamines” (PLoS ONE, 2019).

For one series, the system named is 5-HT2C receptor. Conditions: cited from earlier work.
Another series deals with 5-HT2A receptors. The conditions noted are these: cited from earlier work.

Consider `C[C@H]1CNCCc2ccc(Cl)cc21` [lorcaserin, 1(R)-8-chloro-1-methyl.2,3,4,5-tetrahydro-(1H)-3-benzazepine], for which, in the series on 5-HT2C receptor, the “agonist character at 5-HT2C (in words)” value was “full 5-HT2C agonist”. Moreover, at 5-HT2A receptors (Fig 6), the “pEC50(2A)” value is recorded as 6.8. For the same compound, in the series with 5-HT2A receptors (partial agonist), the “efficacy at 5-HT2A receptors” value is recorded as “about 70%”.
